These results are taken from ChEMBL document CHEMBL2396526, “Chromenylchalcones showing cytotoxicity on human colon cancer cell lines and in silico docking with aurora kinases” (Bioorg Med Chem, 2013).

Activity calls are given as the source filed them. No cut-off for these calls is given here.

The subject of test [1] is HCT-116. The test is described as follows: Induction of apoptosis in human HCT116 cells assessed as DNA content at G1 phase at 20 uM after 24 hrs by annexin V-FITC/propidium iodide staining-based flow cytometric analysis (reference value: 8%). Type of test: functional. In general terms: Flow cytometry measures light scatter and fluorescence of single cells or particles in a stream.

Test [2] deals with HCT-116. Nature of the test: Cell cycle arrest in human HCT116 cells assessed as accumulation at S phase at 20 uM after 48 hrs by propidium iodide staining-based flow cytometric analysis (reference value: 2.9%). The format is functional.
Test [3] has as its system HCT-116. Nature of the test: Cell cycle arrest in human HCT116 cells assessed as accumulation at G1 phase at 20 uM after 48 hrs by propidium iodide staining-based flow cytometric analysis (reference value: 2.9%). Type of test: functional.
Test [4] deals with Epidermal growth factor receptor (Homo sapiens) (UniProt P00533). The test is described as follows: Inhibition of human EGFR.
Sequence of Epidermal growth factor receptor (Homo sapiens) (P00533 whole entry): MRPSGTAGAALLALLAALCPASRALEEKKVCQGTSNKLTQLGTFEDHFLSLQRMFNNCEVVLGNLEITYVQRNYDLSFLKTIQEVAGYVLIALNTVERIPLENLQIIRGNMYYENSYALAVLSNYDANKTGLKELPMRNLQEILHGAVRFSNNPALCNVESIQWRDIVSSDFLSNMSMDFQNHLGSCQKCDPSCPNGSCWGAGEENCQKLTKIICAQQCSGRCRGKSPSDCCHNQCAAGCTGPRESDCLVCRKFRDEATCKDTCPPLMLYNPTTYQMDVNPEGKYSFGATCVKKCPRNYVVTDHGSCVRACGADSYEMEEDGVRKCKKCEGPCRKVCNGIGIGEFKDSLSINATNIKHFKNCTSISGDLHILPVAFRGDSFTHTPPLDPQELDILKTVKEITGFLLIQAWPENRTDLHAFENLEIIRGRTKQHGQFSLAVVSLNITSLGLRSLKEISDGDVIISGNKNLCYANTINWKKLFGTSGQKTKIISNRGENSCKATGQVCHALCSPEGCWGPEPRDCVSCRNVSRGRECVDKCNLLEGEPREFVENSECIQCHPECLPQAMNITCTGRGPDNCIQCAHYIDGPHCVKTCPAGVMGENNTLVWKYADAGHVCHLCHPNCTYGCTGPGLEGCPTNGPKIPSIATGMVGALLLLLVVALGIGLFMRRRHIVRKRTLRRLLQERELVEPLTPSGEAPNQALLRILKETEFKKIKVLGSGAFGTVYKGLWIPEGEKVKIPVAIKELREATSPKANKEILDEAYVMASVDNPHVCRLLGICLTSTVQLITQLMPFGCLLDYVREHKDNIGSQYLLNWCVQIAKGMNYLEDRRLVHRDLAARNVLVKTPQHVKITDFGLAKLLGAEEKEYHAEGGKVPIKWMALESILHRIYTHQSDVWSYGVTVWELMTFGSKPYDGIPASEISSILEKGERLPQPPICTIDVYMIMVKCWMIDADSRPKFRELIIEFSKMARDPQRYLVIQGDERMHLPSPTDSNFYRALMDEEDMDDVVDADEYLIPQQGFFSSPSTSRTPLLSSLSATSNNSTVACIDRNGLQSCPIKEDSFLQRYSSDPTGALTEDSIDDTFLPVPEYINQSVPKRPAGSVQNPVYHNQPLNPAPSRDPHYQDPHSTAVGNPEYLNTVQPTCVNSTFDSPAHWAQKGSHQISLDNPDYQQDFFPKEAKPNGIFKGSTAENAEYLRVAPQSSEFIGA
The target in test [5] is Tyrosine-protein kinase Lck (Homo sapiens) (UniProt P06239). The test is described as follows: Inhibition of human LCK.
Sequence of Tyrosine-protein kinase Lck (Homo sapiens) (P06239 2-509 limits assumed): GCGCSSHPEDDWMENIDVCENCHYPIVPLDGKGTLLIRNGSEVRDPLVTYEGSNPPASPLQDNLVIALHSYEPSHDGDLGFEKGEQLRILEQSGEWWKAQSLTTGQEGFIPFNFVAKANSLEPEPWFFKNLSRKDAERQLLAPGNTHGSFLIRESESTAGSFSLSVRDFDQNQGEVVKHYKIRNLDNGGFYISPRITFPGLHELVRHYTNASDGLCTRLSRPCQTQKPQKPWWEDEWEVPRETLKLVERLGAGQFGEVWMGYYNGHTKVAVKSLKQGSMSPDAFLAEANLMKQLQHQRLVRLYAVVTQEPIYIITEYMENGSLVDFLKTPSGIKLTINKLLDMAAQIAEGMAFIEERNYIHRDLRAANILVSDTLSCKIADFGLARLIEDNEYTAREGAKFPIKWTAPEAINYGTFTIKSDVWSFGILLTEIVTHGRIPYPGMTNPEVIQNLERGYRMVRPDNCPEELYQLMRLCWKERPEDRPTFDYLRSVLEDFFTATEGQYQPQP
The test system of test [6] is HCT-116. The test is described as follows: Induction of apoptosis in human HCT116 cells assessed as appearance of cleaved caspase-7 at fragmented chromosomes at 20 uM after 24 hrs by Hoechst 33258 staining-based fluorescence microscopic analysis. The format is functional, cell-based.
The target of test [7] is T1, Discoidin domain-containing receptor 2 (Homo sapiens) (UniProt Q16832).
T1 sequence (whole entry): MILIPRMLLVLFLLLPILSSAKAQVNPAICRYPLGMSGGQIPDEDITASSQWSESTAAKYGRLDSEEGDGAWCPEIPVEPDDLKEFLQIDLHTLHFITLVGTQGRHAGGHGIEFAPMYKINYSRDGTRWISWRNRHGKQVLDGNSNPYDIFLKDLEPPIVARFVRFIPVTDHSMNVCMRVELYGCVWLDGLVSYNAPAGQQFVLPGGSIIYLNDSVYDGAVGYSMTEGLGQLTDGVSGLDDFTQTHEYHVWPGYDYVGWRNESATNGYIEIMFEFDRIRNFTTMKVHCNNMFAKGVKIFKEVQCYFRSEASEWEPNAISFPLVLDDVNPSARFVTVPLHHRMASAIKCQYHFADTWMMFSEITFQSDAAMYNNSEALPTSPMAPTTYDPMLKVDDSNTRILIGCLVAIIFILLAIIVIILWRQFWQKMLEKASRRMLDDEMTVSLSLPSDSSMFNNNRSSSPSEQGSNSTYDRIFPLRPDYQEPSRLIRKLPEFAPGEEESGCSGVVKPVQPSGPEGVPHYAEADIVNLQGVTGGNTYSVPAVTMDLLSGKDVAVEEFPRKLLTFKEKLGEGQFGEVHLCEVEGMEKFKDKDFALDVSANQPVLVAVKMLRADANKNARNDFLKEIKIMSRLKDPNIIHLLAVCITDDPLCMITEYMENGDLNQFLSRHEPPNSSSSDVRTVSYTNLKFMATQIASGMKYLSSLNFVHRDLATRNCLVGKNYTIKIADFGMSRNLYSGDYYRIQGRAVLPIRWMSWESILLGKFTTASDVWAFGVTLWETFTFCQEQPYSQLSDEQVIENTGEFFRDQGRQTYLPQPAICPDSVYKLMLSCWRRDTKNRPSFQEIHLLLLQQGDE
The test is described as follows: Inhibition of human DDR2.

Test [8] deals with HCT-116. Nature of the test: Induction of apoptosis in human HCT116 cells assessed as PARP cleavage at 20 uM after 24 to 48 hrs by Western blot analysis. The format is functional, cell-based.
Test [9] deals with [Pyruvate dehydrogenase (acetyl-transferring)] kinase isozyme 1, mitochondrial (Homo sapiens) (UniProt Q15118). Nature of the test: Inhibition of human PDK1.
The target of test [10] is T2, Ephrin type-B receptor 3 (Homo sapiens) (UniProt P54753).
T2 sequence (whole entry): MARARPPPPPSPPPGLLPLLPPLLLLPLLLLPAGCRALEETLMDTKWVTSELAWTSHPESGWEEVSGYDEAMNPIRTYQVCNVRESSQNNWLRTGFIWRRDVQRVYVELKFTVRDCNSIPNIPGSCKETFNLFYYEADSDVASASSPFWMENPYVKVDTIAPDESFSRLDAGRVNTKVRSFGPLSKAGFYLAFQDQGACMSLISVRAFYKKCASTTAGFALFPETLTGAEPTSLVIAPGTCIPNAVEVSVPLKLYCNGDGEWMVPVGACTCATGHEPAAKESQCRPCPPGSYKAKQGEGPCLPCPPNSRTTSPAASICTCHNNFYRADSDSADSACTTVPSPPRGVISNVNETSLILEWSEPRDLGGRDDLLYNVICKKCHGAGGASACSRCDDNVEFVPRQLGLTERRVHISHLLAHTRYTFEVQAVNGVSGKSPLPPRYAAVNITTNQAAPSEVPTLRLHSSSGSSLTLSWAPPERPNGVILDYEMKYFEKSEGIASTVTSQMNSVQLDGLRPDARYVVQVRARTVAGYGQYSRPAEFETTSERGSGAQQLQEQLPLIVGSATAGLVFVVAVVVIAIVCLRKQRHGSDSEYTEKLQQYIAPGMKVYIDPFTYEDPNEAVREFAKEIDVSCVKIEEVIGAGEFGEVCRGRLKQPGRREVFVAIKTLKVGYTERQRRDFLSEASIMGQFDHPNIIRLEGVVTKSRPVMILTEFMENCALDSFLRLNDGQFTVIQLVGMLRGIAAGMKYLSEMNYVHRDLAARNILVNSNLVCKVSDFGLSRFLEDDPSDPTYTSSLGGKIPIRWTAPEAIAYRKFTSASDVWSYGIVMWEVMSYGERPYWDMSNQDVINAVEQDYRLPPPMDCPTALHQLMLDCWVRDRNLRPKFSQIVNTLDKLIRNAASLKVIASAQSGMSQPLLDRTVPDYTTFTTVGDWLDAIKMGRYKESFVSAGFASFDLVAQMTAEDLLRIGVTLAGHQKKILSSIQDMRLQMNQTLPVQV
Nature of the test: Inhibition of human EphB.

For test [11], the system named is HCT-116. The test is described as follows: Cell cycle arrest in human HCT116 cells assessed as accumulation at sub-G1 phase at 20 uM by propidium iodide staining-based flow cytometric analysis. The format is functional. As to conditions: TDE = time-dependent effect.
The subject of test [12] is HCT-116. Nature of the test: Cell cycle arrest in human HCT116 cells assessed as accumulation at sub-G1 phase at 20 uM after 24 hrs by propidium iodide staining-based flow cytometric analysis (reference value: 2.9%). The format is functional.
Test [13] relates to HCT-116. The test is described as follows: Induction of apoptosis in human HCT116 cells assessed as dead cells at 20 uM after 24 hrs by annexin V-FITC/propidium iodide staining-based flow cytometric analysis (reference value: 2%). Type of test: functional.

As to `COc1ccc2c(c1)C=C(C(=O)/C=C/c1c(OC)cc(OC)cc1OC)CO2`, the Activity is 99% with HCT-116 [1]; 13.2% in the test on HCT-116 [2]; 29.5% in the test with HCT-116 [3]; “tde” in the test on HCT-116 [11]; 35.3% in the test with HCT-116 [12]; 0% in the test on HCT-116 [13]. The inhibition entry in test [4], in test [5], in test [7], in test [9] and in test [10] was “inactive” each time. Also, the outcome in the test on HCT-116 [6] and in the test on HCT-116 [8] was Active.
